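Step 1: Grow cells in 96-well plates. Step 2: Expose to compound for 48 hours at 5 concentrations. Step 3: Interpolate endpoints linearly; if unreached, use highest concentration. GI50 marks 50% less growth. Definition used: TGI = concentration required for complete inhibition of growth.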
Experiments:
Assay in all cases: NCI anticancer screen, dose series, 48 h
ACHN renal = system: ACHN renal
HCT-15 colon = system: HCT-15 colon
K-562 leukemia = system: K-562 leukemia
MALME-3M melanoma = system: MALME-3M melanoma
MOLT-4 leukemia = system: MOLT-4 leukemia
NCI-H226 lung = system: NCI-H226 lung
OVCAR-4 ovarian = system: OVCAR-4 ovarian
OVCAR-5 ovarian = system: OVCAR-5 ovarian
PC-3 prostate = system: PC-3 prostate
UACC-62 melanoma = system: UACC-62 melanoma

SMILES	TGI (ACHN renal)	TGI (HCT-15 colon)	TGI (K-562 leukemia)	TGI (MALME-3M melanoma)	TGI (MOLT-4 leukemia)	TGI (NCI-H226 lung)	TGI (OVCAR-4 ovarian)	TGI (OVCAR-5 ovarian)	GI50 (PC-3 prostate)	TGI (PC-3 prostate)	TGI (UACC-62 melanoma)	GI50 (ACHN renal)	GI50 (HCT-15 colon)	GI50 (K-562 leukemia)	GI50 (MALME-3M melanoma)	GI50 (MOLT-4 leukemia)	GI50 (NCI-H226 lung)	GI50 (OVCAR-4 ovarian)	GI50 (OVCAR-5 ovarian)	GI50 (UACC-62 melanoma)
C=C1C(C)C2C(Cc3ccccc3)NC(=O)C23C(OC(C)=O)/C=C/C(C)(O)CC(C)C/C=C/C3C1O (centres undefined)	> 100 µM	> 100 µM	> 100 µM	> 94.4 µM	77.2 µM	42.3 µM	82.9 µM	> 100 µM	15.8 µM	> 100 µM	> 91.8 µM									
COc1ccc(C(O)c2cc3c(N)c(C(=O)Nc4cccc(Br)c4)sc3nc2C)cc1 (centres undefined)	> 46.2 µM	> 43 µM	> 100 µM	> 52.7 µM	> 52.8 µM	> 47 µM	> 84.2 µM	> 100 µM	0.204 µM	> 100 µM	> 38.6 µM	0.23 µM	0.121 µM	0.107 µM	0.799 µM	0.14 µM	0.18 µM	0.224 µM	0.216 µM	0.309 µM
COc1ccc([C@H]2O[C@@H](CO)C[C@]2(O)c2ccc(OC)cc2)cc1	> 100 µM	> 100 µM	> 100 µM	> 100 µM	> 100 µM	> 100 µM	> 100 µM	> 100 µM	> 100 µM	> 100 µM	> 100 µM	> 100 µM	> 100 µM	> 100 µM	> 100 µM	> 100 µM	> 100 µM	> 100 µM	> 100 µM	> 100 µM
O=C(/C=C/c1ccco1)Nc1ncc(Cc2ccc(F)cc2)s1	> 100 µM	> 100 µM	> 100 µM	> 100 µM	> 100 µM	> 100 µM	> 100 µM	> 100 µM	0.0571 µM	> 100 µM	> 100 µM	0.0749 µM	0.0461 µM	0.0385 µM	0.249 µM	0.0825 µM		1.22 µM	0.244 µM	0.0555 µM
COC(=O)CCC1=C(C)c2cc3[n-]c(cc4nc(cc5[n-]c(cc1n2)c(CCC(=O)OC)c5C)C=C4C)cc3C.[Cd+2]	38.8 µM	> 55 µM	> 30.8 µM	7.58 µM	> 63.6 µM	4.73 µM	7.14 µM	39.7 µM	4.68 µM	29.3 µM	5.19 µM	16.2 µM	11.8 µM	3.32 µM	2.55 µM	5.08 µM	1.52 µM	2.35 µM	16.8 µM	2 µM
C=C(C)C1/C=C(/C(C)C)CC[C@]2(C)O[C@@H]2CC[C@H](C)CC1=O (some centres undefined)	> 100 µM	> 100 µM	> 100 µM	> 100 µM	> 100 µM	> 100 µM	> 100 µM	> 100 µM	32.4 µM	> 100 µM	> 100 µM	72.4 µM	> 100 µM	33 µM	36.1 µM	> 100 µM	> 100 µM	72.4 µM	> 100 µM	80.2 µM
O=c1[nH]c(-c2ccc(C(F)(F)F)cc2)nc2c1CSCC2	> 100 µM	> 100 µM	> 100 µM	> 100 µM	> 100 µM	> 100 µM	> 100 µM	> 100 µM	> 77.3 µM	> 100 µM	> 100 µM	32.9 µM	> 100 µM	> 100 µM	30.9 µM	> 100 µM	30.4 µM	20.1 µM	79.9 µM	> 100 µM
CC(=O)OC1CCC2(C)C(=CC(C3C=C4CC(OC(C)=O)CCC4(C)C4=C3C3CC5OC6(CCC(C)CO6)C(C)C5C3(C)CC4)C3=C2CCC2(C)C3CC3OC4(CCC(C)CO4)C(C)C32)C1 (centres undefined)	29.2 µM	28.4 µM	15.2 µM	26.4 µM	4.7 µM	41.5 µM	28.2 µM	35.9 µM		25.6 µM	26.1 µM									
FC(F)(F)c1ccc(-c2cnc(Br)nc2NC2CCCCCC2)cc1	> 100 µM	> 100 µM	> 100 µM	> 100 µM	> 100 µM	> 100 µM	> 100 µM	> 100 µM	35.4 µM	> 100 µM	> 100 µM	> 100 µM	55.2 µM	50.4 µM	> 100 µM	41 µM	24.6 µM	26 µM	> 100 µM	42.6 µM
COc1ccc(NC(=O)c2cc(OC)c(OC)c(OC)c2)cc1O	> 100 µM	> 100 µM	> 100 µM	> 100 µM	> 100 µM	> 100 µM	> 100 µM	> 100 µM	2.52 µM	> 100 µM	> 100 µM	13.6 µM	1.46 µM	0.489 µM	29.4 µM	3.42 µM	13.8 µM	15.3 µM	40.1 µM	2.66 µM
O=[As](O)(O)c1ccc(Cc2ccc([As](=O)(O)O)cc2)cc1	2.31 µM	3.21 µM	3.68 µM	2.62 µM	4.26 µM	7.7 µM	7.47 µM	4.65 µM		1.76 µM	2.62 µM									
COc1cc(C2C(C#N)=C(N)OC3=C2C(=O)c2ccccc2C3=O)cc(OC)c1OC (centres undefined)	16.6 µM	18.5 µM	> 100 µM	13.7 µM	24.4 µM	23.7 µM	12.5 µM	18.6 µM	0.577 µM	> 100 µM	2.02 µM	0.571 µM	1.45 µM	0.415 µM	1.18 µM	4.06 µM	1.39 µM	3.45 µM	4.26 µM	0.396 µM
Oc1ccc2ccccc2c1N=Nc1ccccc1	> 100 µM	> 100 µM	> 100 µM	> 100 µM	> 100 µM	> 100 µM	> 100 µM	> 100 µM		> 100 µM	> 100 µM									
Oc1c(CN2CCCC2)cc(COCc2ccccc2)c2cccnc12	10.2 µM	2.9 µM	20.7 µM	14.4 µM	11.4 µM	12 µM	13.6 µM	21.2 µM	2.73 µM	23.3 µM	7.7 µM	0.358 µM	0.152 µM	2.62 µM	3.35 µM	2.96 µM	2.69 µM	0.903 µM	4.1 µM	1.81 µM
O=C(NNS(=O)(=O)c1cc(C(F)(F)F)cc(C(F)(F)F)c1)c1cnn(-c2ccc(Cl)cc2)c1C(F)(F)F	51.2 µM	37.5 µM	65.7 µM	34.3 µM	52.3 µM	54.3 µM	> 100 µM	33.5 µM	16.4 µM	32.8 µM	30 µM	21.6 µM	16 µM	23.1 µM	16.9 µM	19.9 µM	20.7 µM	38.3 µM	17.8 µM	14.5 µM
C[C@@H]1CC[C@@]2(OC1)O[C@H]1C[C@H]3[C@@H]4CC=C5C[C@@H](O[C@@H]6O[C@H](CO)[C@@H](O[C@@H]7O[C@@H](CO)[C@H](O)[C@H]7O)[C@H](O)[C@H]6O[C@@H]6O[C@@H](C)[C@H](O)[C@@H](O)[C@H]6O)CC[C@]5(C)[C@H]4CC[C@]3(C)[C@H]1[C@@H]2C	2.12 µM	2.46 µM	2.64 µM	2 µM	2.26 µM	3.07 µM	2.71 µM	2.56 µM	1.45 µM	2.81 µM	2.11 µM		1.12 µM	0.873 µM	0.681 µM		1.33 µM	1.36 µM	1.29 µM	0.909 µM
C#Cc1ccc(NC(=O)c2ccc(/C=C/C(=O)c3nccn3C)cc2)cc1	0.839 µM	1.6 µM	6.55 µM	1.19 µM	1.54 µM	2 µM	25 µM	1.19 µM	0.476 µM	1.53 µM	1.12 µM	0.445 µM	0.28 µM	0.136 µM	0.486 µM	0.582 µM	0.605 µM	0.727 µM	0.488 µM	0.481 µM
Cn1c(=O)c2[nH]c(COc3ccc(C(C)(C)C)cc3)nc2n(C)c1=O	89.8 µM	> 100 µM	> 100 µM	58.8 µM	31.2 µM	> 100 µM		> 100 µM	6.11 µM	53.3 µM	72.4 µM	9.58 µM	19.9 µM	3.28 µM	18.2 µM	3.94 µM	25.6 µM		24.2 µM	5.56 µM
CCNCCNc1cc(-c2ccc(F)cc2)c(C#N)c2nc3ccccc3n12	3.51 µM	5.86 µM	4.64 µM	3.45 µM		27 µM	14.5 µM	15.9 µM	6.98 µM	19.5 µM	3.95 µM	1.87 µM	2.31 µM	2.15 µM	1.77 µM		12 µM	3.4 µM	4.45 µM	1.9 µM
